Data on three molecules can be found in article PMC9462851, “Redox-controlled reorganization and flavin strain within the ribonucleotide reductase R2b–NrdI complex monitored by serial femtosecond crystallography” (eLife, 2022).

For test [1], the target named is T1, BcR2b–NrdI complex (BcR2bMnMn–NrdI) (Bacillus cereus, UniProt Q81G55+Q81G57).
T1 construct: Untagged purification from E. coli BL21(DE3), plasmids pET22b-BcnrdI and pET22b-Bcr2b; NrdI 118 residues, 13,449 Da; R2b 322 residues, 37,017 Da, produced metal-free then Mn(II)-loaded; 1:1 complex, dimer of heterodimers
T1 sequence (Q81G57 1-119): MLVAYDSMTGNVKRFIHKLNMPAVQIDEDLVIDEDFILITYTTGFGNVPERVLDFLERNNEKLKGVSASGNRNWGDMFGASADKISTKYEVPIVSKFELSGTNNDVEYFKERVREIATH
T1 sequence (Q81G55 1-322): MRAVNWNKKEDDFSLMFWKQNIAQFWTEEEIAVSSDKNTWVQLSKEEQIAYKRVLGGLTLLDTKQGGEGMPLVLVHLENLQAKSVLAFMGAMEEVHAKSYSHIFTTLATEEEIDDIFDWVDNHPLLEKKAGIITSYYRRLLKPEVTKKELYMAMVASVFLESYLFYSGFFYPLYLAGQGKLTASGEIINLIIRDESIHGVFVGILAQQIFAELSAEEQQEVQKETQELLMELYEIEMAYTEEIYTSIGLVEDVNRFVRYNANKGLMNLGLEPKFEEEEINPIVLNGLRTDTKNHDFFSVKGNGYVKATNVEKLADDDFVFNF
Description: serial femtosecond crystallography (XFEL), […] Å. Particulars: Mn(II)/Mn(II) R2b, room temperature. It counts as binding.

The target in test [2] is Bacillus cereus ribonucleotide reductase class Ib R2 subunit (R2b), di-manganese form (Bacillus cereus). Nature of the test: crystal structure; serial femtosecond crystallography at an XFEL (LCLS MFX), room temperature, 2.0 Å; complex reconstituted in vitro by mixing 0.25 mM BcR2b (with 12 equivalents Mn(II)Cl2) and 0.25 mM BcNrdI in 50 mM Tris-HCl pH 7.5, 20°C; batch crystals with NrdI oxidized (7Z3D) or reduced in the crystal with dithionite to the hydroquinone (7Z3E).

For the molecule `Cc1cc2c(cc1C)N(C[C@H](O)[C@H](O)[C@H](O)COP(=O)(O)O)c1[nH]c(=O)[nH]c(=O)c1N2` [FMNhq, hydroquinone flavin mononucleotide], the “serial femtosecond crystallography (XFEL), 2.0 Å” value in test [1] (anaerobic, crystals reduced with sodium dithionite, noncovalent FMN in NrdI at the R2b interface) is reported as “The corresponding structure is denoted BcR2bMnMn–NrdIhq (PDB ID: 7Z3E)”.

`Cc1cc2nc3c(=O)[nH]c(=O)nc-3n(C[C@H](O)[C@H](O)[C@H](O)COP(=O)(O)O)c2cc1C` [FMNox, flavin mononucleotide]: the “serial femtosecond crystallography (XFEL), 2.0 Å” value in test [1] (oxidized crystals grown aerobically, noncovalent FMN in NrdI at the R2b interface (R2b Phe17, Gln20)) is “The structure from these crystals is later referred to as BcR2bMnMn–NrdIox (PDB ID: 7Z3D)”.

B1: Bacillus cereus NrdI (flavoprotein with bound flavin mononucleotide) (natural protein)
chain: MLVAYDSMTGNVKRFIHKLNMPAVQIDEDLVIDEDFILITYTTGFGNVPERVLDFLERNNEKLKGVSASGNRNWGDMFGASADKISTKYEVPIVSKFELSGTNNDVEYFKERVREIAT
On to B1, for which, in test [2], the stoichiometry N was 1.
